US20250145585A1, “HETEROCYCLIC INHIBITORS OF IGF-1R FOR TREATMENT OF DISEASE” (HORIZON THERAPEUTICS IRELAND DAC, priority 2023, published 2025)

Biological target: T1, IGF-1R (Homo sapiens, UniProt P08069)
T1 construct: expressed in transfected cells
Assay: Example B-2: IGF-1R Assay (PathHunter cell lines, EC80 agonist challenge, chemiluminescent detection)
Type: cell-based
Settings: PathHunter cells, compound 60 minutes at 37° C., EC80 agonist 3 hours; read-out: IC50, Biological Activity against IGF-1R (Table B2)
Summary of the method: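 Read-out is PathHunter chemiluminescence, developed for 1 h at room temperature after a 3 h room-temperature EC80 agonist challenge that followed 60 min compound pre-treatment at 37° C (1% vehicle). IC50 comes from % inhibition normalized to EC80 and vehicle controls.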

T1 sequence (P08069 31-1367): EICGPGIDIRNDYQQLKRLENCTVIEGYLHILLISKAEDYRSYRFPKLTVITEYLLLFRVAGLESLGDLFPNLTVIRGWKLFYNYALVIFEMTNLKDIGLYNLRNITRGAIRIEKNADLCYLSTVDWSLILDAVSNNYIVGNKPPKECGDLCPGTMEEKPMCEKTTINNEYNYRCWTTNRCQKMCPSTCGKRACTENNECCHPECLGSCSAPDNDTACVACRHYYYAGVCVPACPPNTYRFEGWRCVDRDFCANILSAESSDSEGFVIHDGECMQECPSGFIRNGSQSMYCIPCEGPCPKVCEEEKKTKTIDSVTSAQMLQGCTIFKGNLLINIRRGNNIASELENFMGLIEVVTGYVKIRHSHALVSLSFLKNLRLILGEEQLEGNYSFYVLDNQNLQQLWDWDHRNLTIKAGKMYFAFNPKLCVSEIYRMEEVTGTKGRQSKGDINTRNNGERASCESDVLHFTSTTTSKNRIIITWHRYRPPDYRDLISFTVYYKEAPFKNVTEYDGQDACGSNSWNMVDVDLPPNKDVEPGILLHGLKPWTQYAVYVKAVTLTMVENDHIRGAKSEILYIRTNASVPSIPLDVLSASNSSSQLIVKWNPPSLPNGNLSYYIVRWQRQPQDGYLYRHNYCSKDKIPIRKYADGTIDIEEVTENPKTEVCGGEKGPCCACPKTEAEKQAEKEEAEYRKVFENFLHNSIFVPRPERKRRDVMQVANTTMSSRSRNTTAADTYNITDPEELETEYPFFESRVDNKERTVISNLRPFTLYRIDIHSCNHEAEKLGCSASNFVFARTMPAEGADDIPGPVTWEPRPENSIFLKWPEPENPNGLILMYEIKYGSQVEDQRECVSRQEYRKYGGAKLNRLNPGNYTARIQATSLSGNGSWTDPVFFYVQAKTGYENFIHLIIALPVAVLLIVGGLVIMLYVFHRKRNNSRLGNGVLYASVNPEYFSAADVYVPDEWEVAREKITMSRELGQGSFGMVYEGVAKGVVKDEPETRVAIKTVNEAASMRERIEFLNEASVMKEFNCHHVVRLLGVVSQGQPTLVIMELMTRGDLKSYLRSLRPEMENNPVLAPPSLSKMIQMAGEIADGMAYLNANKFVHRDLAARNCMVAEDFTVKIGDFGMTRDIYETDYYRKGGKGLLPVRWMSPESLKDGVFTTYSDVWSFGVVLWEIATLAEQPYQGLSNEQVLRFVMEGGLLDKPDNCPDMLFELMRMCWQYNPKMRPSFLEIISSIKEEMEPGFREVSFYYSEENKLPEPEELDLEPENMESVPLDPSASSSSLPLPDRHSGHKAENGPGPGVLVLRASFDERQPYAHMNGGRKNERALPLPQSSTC

## COC[C@@H](C)Nc1cc(CN2C(=O)N(c3ccc4c(c3)N(S(C)(=O)=O)CC43CCC3)C(=O)C2(C)C)ccn1 [Compound 205, (R)-1-((2-((1-methoxypropan-2-yl)amino)pyridin-4-yl)methyl)-5,5-dimethyl-3-(1′-(methylsulfonyl)spiro[cyclobutane-1,3′-indolin]-6′-yl)imidazolidine-2,4-dione]
  IC50: ≤ 500 nM

## CN1CC(C)(C)c2ccc(N3C(=O)N(Cc4ccnc(N[C@H]5CCOC5)c4)C(C)(C)C3=O)cc21 [Compound 206, (S)-5,5-dimethyl-1-((2-((tetrahydrofuran-3-yl)amino)pyridin-4-yl)methyl)-3-(1,3,3-trimethylindolin-6-yl)imidazolidine-2,4-dione]
  IC50: 500 to 2000 nM

## CC1(C)CN(S(C)(=O)=O)c2cc(N3C(=O)N(Cc4ccnc(N[C@H]5[C@@H]6COC[C@@H]65)c4)C(C)(C)C3=O)ccc21 [Compound 207, 1-((2-(((1R,5S,6r)-3-oxabicyclo[3.1.0]hexan-6-yl)amino)pyridin-4-yl)methyl)-3-(3,3-dimethyl-1-(methylsulfonyl)indolin-6-yl)-5,5-dimethylimidazolidine-2,4-dione]
  IC50: ≤ 500 nM

## CC1(C)CN(S(C)(=O)=O)c2cc(N3C(=O)N(Cc4ccnc(N[C@@H]5C[C@@H]5F)c4)C(C)(C)C3=O)ccc21 [Compound 208, 3-(3,3-dimethyl-1-(methylsulfonyl)indolin-6-yl)-1-((2-(((1R,2S)-2-fluorocyclopropyl)amino)pyridin-4-yl)methyl)-5,5-dimethylimidazolidine-2,4-dione]
  IC50: ≤ 500 nM

## CC1(C)CN(S(C)(=O)=O)c2cc(N3C(=O)N(Cc4ccnc(NC5CCOCC5)c4)C(C)(C)C3=O)ccc21 [Compound 209, 3-(3,3-dimethyl-1-(methylsulfonyl)indolin-6-yl)-5,5-dimethyl-1-((2-((tetrahydro-2H-pyran-4-yl)amino)pyridin-4-yl)methyl)imidazolidine-2,4-dione]
  IC50: ≤ 500 nM

## CN1CC(C)(C)c2ccc(N3C(=O)N(Cc4ccnc(NC5CCOCC5)c4)C(C)(C)C3=O)cc21 [Compound 210, 5,5-dimethyl-1-((2-((tetrahydro-2H-pyran-4-yl)amino)pyridin-4-yl)methyl)-3-(1,3,3-trimethylindolin-6-yl)imidazolidine-2,4-dione]
  IC50: ≤ 500 nM

## CC1(C)C(=O)N(c2ccc3c(c2)N(S(C)(=O)=O)CC32CCC2)C(=O)N1Cc1ccnc(NC2CCOCC2)c1 [Compound 211, 5,5-dimethyl-3-(1′-(methylsulfonyl)spiro[cyclobutane-1,3′-indolin]-6′-yl)-1-((2-((tetrahydro-2H-pyran-4-yl)amino)pyridin-4-yl)methyl)imidazolidine-2,4-dione]
  IC50: ≤ 500 nM

## CC1(C)C(=O)N(c2ccc3c(c2)N(S(C)(=O)=O)CC32CC2)C(=O)N1Cc1ccnc(NC2CCOCC2)c1 [Compound 212, 5,5-dimethyl-3-(1′-(methylsulfonyl)spiro[cyclopropane-1,3′-indolin]-6′-yl)-1-((2-((tetrahydro-2H-pyran-4-yl)amino)pyridin-4-yl)methyl)imidazolidine-2,4-dione]
  IC50: ≤ 500 nM

## COC[C@@H](C)Nc1cc(CN2C(=O)N(c3ccc4c(c3)N(S(C)(=O)=O)CC43CC3)C(=O)C2(C)C)ccn1 [Compound 213, (R)-1-((2-((1-methoxypropan-2-yl)amino)pyridin-4-yl)methyl)-5,5-dimethyl-3-(1′-(methylsulfonyl)spiro[cyclopropane-1,3′-indolin]-6′-yl)imidazolidine-2,4-dione]
  IC50: ≤ 500 nM

## CN1CC2(CCC2)c2ccc(N3C(=O)N(Cc4ccnc(NC5CCOCC5)c4)C(C)(C)C3=O)cc21 [Compound 214, 5,5-dimethyl-3-(1′-methylspiro[cyclobutane-1,3′-indolin]-6′-yl)-1-((2-((tetrahydro-2H-pyran-4-yl)amino)pyridin-4-yl)methyl)imidazolidine-2,4-dione]
  IC50: ≤ 500 nM

## C[C@@H](CC#N)Nc1cc(CN2C(=O)N(c3ccc4c(c3)N(S(C)(=O)=O)CC4(C)C)C(=O)C2(C)C)ccn1 [Compound 215, (S)-3-((4-((3-(3,3-dimethyl-1-(methylsulfonyl)indolin-6-yl)-5,5-dimethyl-2,4-dioxoimidazolidin-1-yl)methyl)pyridin-2-yl)amino)butanenitrile]
  IC50: ≤ 500 nM

## CC1(C)C(=O)N(c2ccc3c(c2)N(S(C)(=O)=O)CC32CCC2)C(=O)N1Cc1ccnc(N[C@H]2[C@@H]3COC[C@@H]32)c1 [Compound 216, 1-((2-(((1R,5S,6r)-3-oxabicyclo[3.1.0]hexan-6-yl)amino)pyridin-4-yl)methyl)-5,5-dimethyl-3-(1′-(methylsulfonyl)spiro[cyclobutane-1,3′-indolin]-6′-yl)imidazolidine-2,4-dione]
  IC50: ≤ 500 nM

## C[C@@H](CC#N)Nc1cc(CN2C(=O)N(c3ccc4c(c3)N(C)CC4(C)C)C(=O)C2(C)C)ccn1 [Compound 217, (S)-3-((4-((5,5-dimethyl-2,4-dioxo-3-(1,3,3-trimethylindolin-6-yl)imidazolidin-1-yl)methyl)pyridin-2-yl)amino)butanenitrile]
  IC50: ≤ 500 nM

## CN1CC(C)(C)c2ccc(N3C(=O)N(Cc4ccnc(N[C@H]5[C@@H]6COC[C@@H]65)c4)C(C)(C)C3=O)cc21 [Compound 218, 1-((2-(((1R,5S,6r)-3-oxabicyclo[3.1.0]hexan-6-yl)amino)pyridin-4-yl)methyl)-5,5-dimethyl-3-(1,3,3-trimethylindolin-6-yl)imidazolidine-2,4-dione]
  IC50: ≤ 500 nM

## COCCC(C)Nc1cc(CN2C(=O)N(c3ccc4c(c3)N(S(C)(=O)=O)CC4(C)C)C(=O)C2(C)C)ccn1 (stereo not shown) [Compound 219, 3-(3,3-dimethyl-1-(methylsulfonyl)indolin-6-yl)-1-((2-((4-methoxybutan-2-yl)amino)pyridin-4-yl)methyl)-5,5-dimethylimidazolidine-2,4-dione]
  IC50: ≤ 500 nM

## C[C@@H](CC#N)Nc1cc(CN2C(=O)N(c3ccc4c(c3)N(S(C)(=O)=O)CC43CCC3)C(=O)C2(C)C)ccn1 [Compound 221, (S)-3-((4-((5,5-dimethyl-3-(1′-(methylsulfonyl)spiro[cyclobutane-1,3′-indolin]-6′-yl)-2,4-dioxoimidazolidin-1-yl)methyl)pyridin-2-yl)amino)butanenitrile]
  IC50: ≤ 500 nM

## CC1(C)C(=O)N(c2ccc3c(c2)N(S(C)(=O)=O)CC32CC2)C(=O)N1Cc1ccnc(N[C@H]2[C@@H]3COC[C@@H]32)c1 [Compound 222, 1-((2-(((1R,5S,6r)-3-oxabicyclo[3.1.0]hexan-6-yl)amino)pyridin-4-yl)methyl)-5,5-dimethyl-3-(1′-(methylsulfonyl)spiro[cyclopropane-1,3′-indolin]-6′-yl)imidazolidine-2,4-dione]
  IC50: ≤ 500 nM

## CC1(C)C(=O)N(c2ccc3c(c2)N(S(C)(=O)=O)CC32CC2)C(=O)N1Cc1ccnc(N[C@H]2CCOC2)c1 [Compound 223, (S)-5,5-dimethyl-3-(1′-(methylsulfonyl)spiro[cyclopropane-1,3′-indolin]-6′-yl)-1-((2-((tetrahydrofuran-3-yl)amino)pyridin-4-yl)methyl)imidazolidine-2,4-dione]
  IC50: ≤ 500 nM

## COCCOC[C@@H](C)Nc1cc(CN2C(=O)N(c3ccc4c(c3)N(S(C)(=O)=O)CC4(C)C)C(=O)C2(C)C)ccn1 [Compound 224, (R)-3-(3,3-dimethyl-1-(methylsulfonyl)indolin-6-yl)-1-((2-((1-(2-methoxyethoxy)propan-2-yl)amino)pyridin-4-yl)methyl)-5,5-dimethylimidazolidine-2,4-dione]
  IC50: ≤ 500 nM

## CC(Nc1cc(CN2C(=O)N(c3ccc4c(c3)N(S(C)(=O)=O)CC43CCC3)C(=O)C2(C)C)ccn1)C1CCOC1 (stereo not shown) [Compound 225, 5,5-dimethyl-3-(1′-(methylsulfonyl)spiro[cyclobutane-1,3′-indolin]-6′-yl)-1-((2-((1-(tetrahydrofuran-3-yl)ethyl)amino)pyridin-4-yl)methyl)imidazolidine-2,4-dione]
  IC50: ≤ 500 nM

## CC1(C)C(=O)N(c2ccc3c(c2)N(S(C)(=O)=O)CC32CCC2)C(=O)N1Cc1ccnc(NCC2CCOC2)c1 (stereo not shown) [Compound 226, 5,5-dimethyl-3-(1′-(methylsulfonyl)spiro[cyclobutane-1,3′-indolin]-6′-yl)-1-((2-(((tetrahydrofuran-3-yl)methyl)amino)pyridin-4-yl)methyl)imidazolidine-2,4-dione]
  IC50: ≤ 500 nM

## COCCN1CC(C)(C)c2ccc(N3C(=O)N(Cc4ccnc(NC5CCOCC5)c4)C(C)(C)C3=O)cc21 [Compound 227, 3-(1-(2-methoxyethyl)-3,3-dimethylindolin-6-yl)-5,5-dimethyl-1-((2-((tetrahydro-2H-pyran-4-yl)amino)pyridin-4-yl)methyl)imidazolidine-2,4-dione]
  IC50: ≤ 500 nM

## COCCS(=O)(=O)N1CC(C)(C)c2ccc(N3C(=O)N(Cc4ccnc(NC5CCOCC5)c4)C(C)(C)C3=O)cc21 [Compound 228, 3-(1-((2-methoxyethyl)sulfonyl)-3,3-dimethylindolin-6-yl)-5,5-dimethyl-1-((2-((tetrahydro-2H-pyran-4-yl)amino)pyridin-4-yl)methyl)imidazolidine-2,4-dione]
  IC50: ≤ 500 nM

## CC1(C)COc2cc(N3C(=O)N(Cc4ccnc(N[C@H]5[C@@H]6COC[C@@H]65)c4)C(C)(C)C3=O)ccc21 [Compound 229, 1-((2-(((1R,5S,6r)-3-oxabicyclo[3.1.0]hexan-6-yl)amino)pyridin-4-yl)methyl)-3-(3,3-dimethyl-2,3-dihydrobenzofuran-6-yl)-5,5-dimethylimidazolidine-2,4-dione]
  IC50: ≤ 500 nM

## C[C@@H](CC#N)Nc1cc(CN2C(=O)N(c3ccc4c(c3)N(S(C)(=O)=O)CC43CC3)C(=O)C2(C)C)ccn1 [Compound 230, (S)-3-((4-((5,5-dimethyl-3-(1′-(methylsulfonyl)spiro[cyclopropane-1,3′-indolin]-6′-yl)-2,4-dioxoimidazolidin-1-yl)methyl)pyridin-2-yl)amino)butanenitrile]
  IC50: ≤ 500 nM
